Article PMC5746282, “Polypyridylruthenium(II) complexes exert anti-schistosome activity and inhibit parasite acetylcholinesterases” (PLoS Neglected Tropical Diseases, 2017)
Read-outs that look alike come from different tables or passages of the source.

Columns and labels:
[1] = tested on: nucleotide pyrophosphatase-phosphodiesterase 5 (SmNPP-5); format: biochemical, S. mansoni; settings: 10 µM
[2] = target: acetylcholinesterase (AChE); format: biochemical, S. mansoni
[3] = tested on: acetylcholinesterase (AChE); format: biochemical, S. mansoni; settings: 1 µM
[4] = tested on: alkaline phosphatase (AP); format: biochemical, S. mansoni; settings: 10 µM
[5] = target: acetylcholinesterase (AChE); format: biochemical, S. haematobium
[6] = tested on: human bile duct cell line H69; experiment: MTT cytotoxicity assay; format: cell-based; settings: 0.1 μM, 72 h

[Ru(phen)2(Me2bpy)]^2+
SmNPP-5 Inhibition (%) [1]: 2% | IC50 [2]: 67 ± 11.6 µM | AChE Inhibition (%) ([2]; 1 µM): 9.3 ± 1.8% | AChE Inhibition (%) [3]: 66.5 ± 5.8% | AP Inhibition (%) [4]: 3% | IC50 [5]: 90.2 ± 1.2 µM | AChE Inhibition (%) ([5]; 1 µM): 13.3 ± 1.8%

COP(=O)(OC)OC=C(Cl)Cl [Dichlorvos, dichlorvos]
cells killed [6]: 100%
